Experimental data taken from ChEMBL document CHEMBL1145057, “Water soluble, core-modified porphyrins. 3. Synthesis, photophysical properties, and in vitro studies of photosensitization, uptake, and localization with carboxylic acid-substituted derivatives” (J Med Chem, 2003).

Experiment: Partition coefficient (logP)
Assay type: physicochemical
Settings: octanol/water

SMILES | logP
O=C(O)COc1ccc(-c2c3nc(c(-c4ccccc4)c4ccc(s4)c(-c4ccccc4)c4nc(c(-c5ccc(OCC(=O)O)cc5)c5ccc2s5)C=C4)C=C3)cc1 | 0.036
O=C(O)COc1ccc(-c2c3nc(c(-c4ccccc4)c4ccc(s4)c(-c4ccccc4)c4nc(c(-c5ccccc5)c5ccc2s5)C=C4)C=C3)cc1 | > 3.5
O=S(=O)(O)c1ccc(-c2c3nc(c(-c4ccc(F)cc4)c4ccc(s4)c(-c4ccc(F)cc4)c4nc(c(-c5ccc(S(=O)(=O)O)cc5)c5ccc2s5)C=C4)C=C3)cc1 | -1.9
O=C(O)COc1ccc(-c2c3nc(c(-c4ccc(OCC(=O)O)cc4)c4ccc(s4)c(-c4ccc(OCC(=O)O)cc4)c4nc(c(-c5ccccc5)c5ccc2s5)C=C4)C=C3)cc1 | -1.49
O=C(O)COc1ccc(-c2c3nc(c(-c4ccccc4)c4ccc(s4)c(-c4ccccc4)c4nc(c(-c5ccc(OCC(=O)O)cc5)c5ccc2[se]5)C=C4)C=C3)cc1 | -0.67
O=C(O)COc1ccc(-c2c3nc(c(-c4ccc(OCC(=O)O)cc4)c4ccc(s4)c(-c4ccc(OCC(=O)O)cc4)c4nc(c(-c5ccc(OCC(=O)O)cc5)c5ccc2s5)C=C4)C=C3)cc1 | -0.95
